# Test results reported in ChEMBL document CHEMBL4616723, “Discovery of Antibacterials That Inhibit Bacterial RNA Polymerase Interactions with Sigma Factors” (J Med Chem, 2020).
# Legend:
# Format in all cases: functional
# [1] = system: Escherichia coli; assay: Antibacterial activity against Escherichia coli ATCC 25922 after 20 hrs by CLSI based-broth microdilution method; settings: ATCC 25922, 20 h
# [2] = system: Acinetobacter baumannii; assay: Antibacterial activity against Acinetobacter baumannii ATCC 19606 after 20 hrs by CLSI based-broth microdilution method; settings: ATCC 19606 = CIP 70.34 = JCM 6841, 20 h
# [3] = system: Pseudomonas aeruginosa; assay: Antibacterial activity against Pseudomonas aeruginosa ATCC 27853 after 20 hrs by CLSI based-broth microdilution method; settings: ATCC 27853, 20 h
# [4] = system: Streptococcus pneumoniae; assay: Antibacterial activity against Streptococcus pneumoniae ATCC 49619 after 20 hrs by CLSI based-broth microdilution method; settings: ATCC 49619, 20 h
# [5] = system: Klebsiella pneumoniae; assay: Antibacterial activity against Klebsiella pneumoniae ATCC 700603 after 20 hrs by CLSI based-broth microdilution method; settings: ATCC 700603, 20 h
# [6] = system: Enterobacter cloacae; assay: Antibacterial activity against Enterobacter cloacae ATCC 13047 after 20 hrs by CLSI based-broth microdilution method; settings: subsp. cloacae ATCC 13047, 20 h
MIC [1],MIC [2],MIC [3],MIC [4],MIC [5],MIC [6],SMILES
> 256 µg/mL,> 256 µg/mL,> 256 µg/mL,> 256 µg/mL,> 256 µg/mL,> 256 µg/mL,NC(=O)c1cccc(Nc2ccc(C(=O)c3ccccc3C(=O)O)cc2[N+](=O)[O-])c1
> 256 µg/mL,> 256 µg/mL,> 256 µg/mL,256 µg/mL,> 256 µg/mL,> 256 µg/mL,O=C(O)c1ccccc1C(=O)c1ccc(NCc2ccccc2F)c([N+](=O)[O-])c1
> 256 µg/mL,> 256 µg/mL,> 256 µg/mL,> 256 µg/mL,> 256 µg/mL,> 256 µg/mL,NC(=O)c1cccc(NCc2ccc(Sc3ccc(Cl)c(Cl)c3)c([N+](=O)[O-])c2)c1
> 256 µg/mL,> 256 µg/mL,> 256 µg/mL,256 µg/mL,> 256 µg/mL,> 256 µg/mL,CCN(CC)C(=O)c1ccc(Sc2ccc(C(=O)c3ccccc3C(=O)O)cc2[N+](=O)[O-])c([N+](=O)[O-])c1
> 256 µg/mL,> 256 µg/mL,> 256 µg/mL,64 µg/mL,> 256 µg/mL,> 256 µg/mL,NS(=O)(=O)c1cccc(NCc2ccc(Sc3ccc(Cl)c(Cl)c3)c([N+](=O)[O-])c2)c1
> 256 µg/mL,> 256 µg/mL,> 256 µg/mL,256 µg/mL,> 256 µg/mL,> 256 µg/mL,O=C(O)c1cc(NCc2ccc(Sc3ccc(Cl)c(Cl)c3)c([N+](=O)[O-])c2)ccc1Cl
> 256 µg/mL,> 256 µg/mL,> 256 µg/mL,64 µg/mL,> 256 µg/mL,> 256 µg/mL,O=C(O)c1ccccc1C(=O)c1ccc(Nc2ccc(Cl)c(Cl)c2)c([N+](=O)[O-])c1
> 256 µg/mL,> 256 µg/mL,> 256 µg/mL,128 µg/mL,> 256 µg/mL,> 256 µg/mL,COc1ccccc1Sc1ccc(C(=O)c2ccccc2C(=O)O)cc1[N+](=O)[O-]
> 256 µg/mL,> 256 µg/mL,> 256 µg/mL,128 µg/mL,> 256 µg/mL,> 256 µg/mL,O=C(O)c1ccccc1C(=O)c1ccc(Sc2ccccc2F)c([N+](=O)[O-])c1
> 256 µg/mL,> 256 µg/mL,> 256 µg/mL,64 µg/mL,> 256 µg/mL,> 256 µg/mL,Nc1ccccc1Sc1ccc(C(=O)Nc2ccccc2C(=O)O)cc1[N+](=O)[O-]
> 256 µg/mL,> 256 µg/mL,> 256 µg/mL,32 µg/mL,> 256 µg/mL,> 256 µg/mL,O=C(O)c1ccccc1C(=O)c1ccc(Sc2ccc(Cl)cc2Cl)c([N+](=O)[O-])c1
> 256 µg/mL,> 256 µg/mL,> 256 µg/mL,32 µg/mL,> 256 µg/mL,> 256 µg/mL,CC(C)Nc1cccc(Sc2ccc(C(=O)c3ccccc3C(=O)O)cc2[N+](=O)[O-])c1
> 256 µg/mL,> 256 µg/mL,> 256 µg/mL,128 µg/mL,> 256 µg/mL,> 256 µg/mL,Cc1cccc([N+](=O)[O-])c1Sc1ccc(C(=O)c2ccccc2C(=O)O)cc1[N+](=O)[O-]
> 256 µg/mL,> 256 µg/mL,> 256 µg/mL,256 µg/mL,> 256 µg/mL,> 256 µg/mL,O=C(O)c1cccc(NC(=O)c2ccc(Sc3ccc(Cl)c(Cl)c3)c([N+](=O)[O-])c2)c1
> 256 µg/mL,> 256 µg/mL,> 256 µg/mL,32 µg/mL,> 256 µg/mL,> 256 µg/mL,Cc1ccc(Sc2ccc(C(=O)c3ccccc3C(=O)O)cc2[N+](=O)[O-])c(C)c1
> 256 µg/mL,> 256 µg/mL,> 256 µg/mL,> 256 µg/mL,> 256 µg/mL,> 256 µg/mL,N#Cc1ccccc1NCc1ccc(Sc2ccc(Cl)c(Cl)c2)c([N+](=O)[O-])c1
> 256 µg/mL,> 256 µg/mL,> 256 µg/mL,> 256 µg/mL,> 256 µg/mL,> 256 µg/mL,O=C(O)c1ccccc1C(=O)c1ccc(Nc2nccs2)c([N+](=O)[O-])c1
> 256 µg/mL,> 256 µg/mL,> 256 µg/mL,256 µg/mL,> 256 µg/mL,> 256 µg/mL,O=C(O)c1ccccc1C(=O)c1ccc(NCc2ccccc2)c([N+](=O)[O-])c1
> 256 µg/mL,> 256 µg/mL,> 256 µg/mL,256 µg/mL,> 256 µg/mL,> 256 µg/mL,Nc1ccccc1Sc1ccc(CNc2ccc(C(=O)O)cc2)cc1[N+](=O)[O-]
> 256 µg/mL,> 256 µg/mL,> 256 µg/mL,> 256 µg/mL,> 256 µg/mL,> 256 µg/mL,O=C(O)c1ccc(F)c(NCc2ccc(Sc3ccc(Cl)c(Cl)c3)c([N+](=O)[O-])c2)c1
> 256 µg/mL,> 256 µg/mL,> 256 µg/mL,> 256 µg/mL,> 256 µg/mL,> 256 µg/mL,O=[N+]([O-])c1cc(CNc2cccc(CO)c2)ccc1Sc1ccc(Cl)c(Cl)c1

# The next lines start with the compound.
SMILES,MIC [1],MIC [2],MIC [3],MIC [4],MIC [5],MIC [6]
O=C(O)c1ccccc1C(=O)c1ccc(Sc2ccccn2)c([N+](=O)[O-])c1,> 256 µg/mL,> 256 µg/mL,> 256 µg/mL,> 256 µg/mL,> 256 µg/mL,> 256 µg/mL
Cc1cccc(Nc2ccc(C(=O)c3ccccc3C(=O)O)cc2[N+](=O)[O-])c1,> 256 µg/mL,> 256 µg/mL,> 256 µg/mL,128 µg/mL,> 256 µg/mL,> 256 µg/mL
CC(=O)Nc1cccc(Sc2ccc(C(=O)c3ccccc3C(=O)O)cc2[N+](=O)[O-])c1,> 256 µg/mL,> 256 µg/mL,> 256 µg/mL,256 µg/mL,> 256 µg/mL,> 256 µg/mL
NC(=O)c1ccccc1NCc1ccc(Sc2ccc(Cl)c(Cl)c2)c([N+](=O)[O-])c1,> 256 µg/mL,> 256 µg/mL,> 256 µg/mL,> 256 µg/mL,> 256 µg/mL,> 256 µg/mL
O=C(O)c1ccc(N2CCOCC2)c(NCc2ccc(Sc3ccc(Cl)c(Cl)c3)c([N+](=O)[O-])c2)c1,> 256 µg/mL,> 256 µg/mL,> 256 µg/mL,16 µg/mL,> 256 µg/mL,> 256 µg/mL
Nc1ccccc1Nc1ccc(C(=O)c2ccccc2C(=O)O)cc1[N+](=O)[O-],> 256 µg/mL,> 256 µg/mL,> 256 µg/mL,> 256 µg/mL,> 256 µg/mL,> 256 µg/mL
O=C(O)c1ccccc1C(=O)c1ccc(Nc2cccc3cccnc23)c([N+](=O)[O-])c1,> 256 µg/mL,> 256 µg/mL,> 256 µg/mL,> 256 µg/mL,> 256 µg/mL,> 256 µg/mL
Cc1ccc(C(=O)O)cc1NCc1ccc(Sc2ccc(Cl)c(Cl)c2)c([N+](=O)[O-])c1,> 256 µg/mL,> 256 µg/mL,> 256 µg/mL,16 µg/mL,> 256 µg/mL,> 256 µg/mL
O=C(Nc1ccccc1C(=O)O)c1ccc(Sc2ccc(Cl)c(Cl)c2)c([N+](=O)[O-])c1,> 256 µg/mL,> 256 µg/mL,> 256 µg/mL,> 256 µg/mL,> 256 µg/mL,> 256 µg/mL
O=C(O)c1ccccc1C(=O)c1ccc(Nc2cccc(CO)c2)c([N+](=O)[O-])c1,> 256 µg/mL,> 256 µg/mL,> 256 µg/mL,> 256 µg/mL,> 256 µg/mL,> 256 µg/mL
O=C(Nc1cccc(Sc2ccc(C(=O)c3ccccc3C(=O)O)cc2[N+](=O)[O-])c1)c1ccccc1,> 256 µg/mL,> 256 µg/mL,> 256 µg/mL,32 µg/mL,> 256 µg/mL,> 256 µg/mL
Nc1cc(C(=O)c2ccccc2C(=O)O)ccc1Sc1ccc(Cl)c(Cl)c1,> 256 µg/mL,> 256 µg/mL,> 256 µg/mL,32 µg/mL,> 256 µg/mL,> 256 µg/mL
O=C(O)c1ccccc1C(=O)c1ccc(N2CCCCC2)c([N+](=O)[O-])c1,> 256 µg/mL,> 256 µg/mL,> 256 µg/mL,256 µg/mL,> 256 µg/mL,> 256 µg/mL
Cc1occc1Sc1ccc(C(=O)c2ccccc2C(=O)O)cc1[N+](=O)[O-],> 256 µg/mL,> 256 µg/mL,> 256 µg/mL,256 µg/mL,> 256 µg/mL,> 256 µg/mL
NC1CCCCC1Nc1ccc(C(=O)c2ccccc2C(=O)O)cc1[N+](=O)[O-] (configuration not stated),> 256 µg/mL,> 256 µg/mL,> 256 µg/mL,> 256 µg/mL,> 256 µg/mL,> 256 µg/mL
CC(C)(C)c1cccc(Nc2ccc(C(=O)c3ccccc3C(=O)O)cc2[N+](=O)[O-])c1,> 256 µg/mL,> 256 µg/mL,> 256 µg/mL,256 µg/mL,> 256 µg/mL,> 256 µg/mL
Nc1ccccc1Sc1ccc(C(=O)Nc2cccc(C(=O)O)c2)cc1[N+](=O)[O-],> 256 µg/mL,> 256 µg/mL,> 256 µg/mL,128 µg/mL,> 256 µg/mL,> 256 µg/mL
O=C(O)c1ccccc1C(=O)c1ccc(Nc2ccccc2)c([N+](=O)[O-])c1,> 256 µg/mL,> 256 µg/mL,> 256 µg/mL,256 µg/mL,> 256 µg/mL,> 256 µg/mL
Nc1ccccc1Sc1ccc(CNc2ccccc2C(=O)O)cc1[N+](=O)[O-],> 256 µg/mL,> 256 µg/mL,> 256 µg/mL,64 µg/mL,> 256 µg/mL,> 256 µg/mL
O=C(O)c1ccccc1C(=O)c1ccc(N2CCOCC2)c([N+](=O)[O-])c1,> 256 µg/mL,> 256 µg/mL,> 256 µg/mL,> 256 µg/mL,> 256 µg/mL,> 256 µg/mL
COc1ccc(Nc2ccc(C(=O)c3ccccc3C(=O)O)cc2[N+](=O)[O-])cc1,> 256 µg/mL,> 256 µg/mL,> 256 µg/mL,> 256 µg/mL,> 256 µg/mL,> 256 µg/mL
